What all share (type): cell-based
The target of assay [1] is T1, TLR2 (Homo sapiens, UniProt O60603). Briefly: TLR2 agonist screening assay, HEK-Blue TLR2 reporter cell line (NF-kB-driven SEAP, absorbance at 600 nm). The settings on record: HEK-Blue TLR2 reporter cells, agonist mode. The arrangement: host or cells: HEK-293 (HEK-Blue TLR2 reporter cell line). In a few lines: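 Read-out: SEAP colour change, A600, after overnight agonist exposure. Cells: HEK-293 overexpressing TLR2, NF-kB-SEAP reporter, ~40,000/well, plated 16-24 h prior.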

Assay [2] addresses T1, TLR2. Briefly: TLR2 in vitro functional assay, cytokine release from human monocytic cell line THP-1. To be noted: THP-1 human monocytic cell line, average of all runs. On the procedure: Cells of the immune system respond to TLR agonists in part by secreting cytokines. Functional assays for TLR2 agonists measure cytokine release from purified immune cells or immortalized cell lines derived from immune cells. Cytokine release is measured by standard ELISA approaches or multiplexed analysis using the Meso Scale Discovery (MSD) platform.
Following assay measurements utilizing either HEK-Blue detection or cytokine release, all data is analyzed with the GraphPad Prism8 statistical package to determine EC50, binding and activity metrics for the TLR2 modulators. […]
Numerous cell lines derived from various cell types can respond to TLR2 agonists with stereotyped cytokine and chemokine secretion. In particular, cell lines derived from macrophages respond robustly to TLR2 agonists by secreting a wide array of cytokines, including (but not limited to) TNF-alpha, IL-1, IL-10 and IL-12. The human monocytic cell line THP-1, the mouse macrophage line RAW-264.7, and the rat macrophage line NR8383 were used. For each assay, the respective cell lines were plated into 96-well plates overnight and then treated the following day with various TLR2-engaging compounds at varying concentrations. The next day, supernatants were collected and assayed by multiplex immunodetection for cytokines released (MSD detection kits for respective species).
Data provided in Table 5 is generated using protocols described in Example 45 and 46.

Assay [3] deals with T2, TLR2 (Mus musculus, UniProt Q9QUN7).
T2 construct: endogenous in cells; host or cells: RAW 264.7
Briefly: TLR2 functional assay, cytokine release from RAW 264.7 mouse macrophage cell line. To be noted: average of all runs. Summed up:
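RAW 264.7 cells plated (about 40,000 per well) and treated with compounds at varying concentrations for 6–24 h (or overnight). Released cytokines in supernatant (e.g. TNF-alpha, IL-1, IL-10, IL-12) measured by ELISA or MSD multiplex; EC50 fitted.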

The values that follow come from patent US11951094B2, “TLR2 modulator compounds, pharmaceutical compositions and uses thereof” (Axial Therapeutics, Inc., priority 2020, dated 2024).

pEC50: −log10 of the molar value. Structures can show the parent of a compound that is named as a salt.

For orientation: pEC50 means −log10 of the EC50, conventionally taken in molar units. Higher therefore signals a small EC50.

T1 sequence (O60603 21-784): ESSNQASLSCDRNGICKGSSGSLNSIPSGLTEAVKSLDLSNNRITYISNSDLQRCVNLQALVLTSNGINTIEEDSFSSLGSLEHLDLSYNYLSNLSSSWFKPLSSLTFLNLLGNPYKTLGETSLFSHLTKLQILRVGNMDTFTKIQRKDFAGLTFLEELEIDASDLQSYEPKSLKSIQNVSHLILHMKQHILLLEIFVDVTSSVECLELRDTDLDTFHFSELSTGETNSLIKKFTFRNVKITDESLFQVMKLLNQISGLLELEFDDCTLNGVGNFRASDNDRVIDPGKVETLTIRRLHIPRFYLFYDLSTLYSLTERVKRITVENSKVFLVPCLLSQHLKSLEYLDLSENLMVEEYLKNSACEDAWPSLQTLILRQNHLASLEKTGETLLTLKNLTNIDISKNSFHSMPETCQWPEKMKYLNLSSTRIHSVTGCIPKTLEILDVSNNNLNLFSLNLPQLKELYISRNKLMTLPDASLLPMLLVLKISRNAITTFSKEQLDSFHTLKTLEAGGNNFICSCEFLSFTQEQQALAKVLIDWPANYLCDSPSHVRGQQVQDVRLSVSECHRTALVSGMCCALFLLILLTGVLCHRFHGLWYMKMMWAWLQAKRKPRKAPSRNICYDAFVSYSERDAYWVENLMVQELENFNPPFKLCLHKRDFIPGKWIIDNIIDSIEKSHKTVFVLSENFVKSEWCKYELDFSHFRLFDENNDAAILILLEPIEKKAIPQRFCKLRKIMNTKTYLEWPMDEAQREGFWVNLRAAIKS
T2 sequence (Q9QUN7 25-784): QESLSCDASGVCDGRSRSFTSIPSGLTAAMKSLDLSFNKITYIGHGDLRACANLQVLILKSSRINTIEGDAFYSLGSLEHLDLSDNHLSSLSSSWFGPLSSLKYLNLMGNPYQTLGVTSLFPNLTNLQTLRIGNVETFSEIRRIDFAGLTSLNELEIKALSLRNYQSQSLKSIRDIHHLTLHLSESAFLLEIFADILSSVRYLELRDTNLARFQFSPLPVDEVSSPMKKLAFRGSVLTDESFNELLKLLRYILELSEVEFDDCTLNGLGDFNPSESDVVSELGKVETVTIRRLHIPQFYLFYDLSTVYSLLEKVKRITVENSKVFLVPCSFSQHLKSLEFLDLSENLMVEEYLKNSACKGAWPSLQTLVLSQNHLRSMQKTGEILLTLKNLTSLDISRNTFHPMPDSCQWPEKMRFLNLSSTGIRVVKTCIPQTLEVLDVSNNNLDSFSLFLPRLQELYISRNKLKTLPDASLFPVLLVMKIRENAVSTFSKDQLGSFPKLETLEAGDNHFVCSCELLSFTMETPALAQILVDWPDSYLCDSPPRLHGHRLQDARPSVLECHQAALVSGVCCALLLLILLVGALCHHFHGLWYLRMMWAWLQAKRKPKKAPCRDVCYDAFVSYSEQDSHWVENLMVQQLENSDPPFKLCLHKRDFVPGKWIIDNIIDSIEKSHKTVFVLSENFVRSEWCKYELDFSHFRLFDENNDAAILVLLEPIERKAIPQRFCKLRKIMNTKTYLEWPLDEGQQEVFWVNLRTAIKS

On to `CCCCCCCCCCCCCCNC(=O)[C@H]1CN(C(=O)c2ccc(C(=O)N3C[C@@H](C(=O)N[C@H]4C[C@@H]4c4ccccc4)[C@H](C(=O)N[C@H]4C[C@@H]4c4ccccc4)C3)cc2)C[C@H]1O` (relative stereo) [Compound 104, (3S,4S)-1-(4-((3S*,4S*)-3-hydroxy-4-(tetradecylcarbamoyl)pyrrolidine-1-carbonyl)benzoyl)-N3,N4-bis((1S,2R)-2-phenylcyclopropyl)pyrrolidine-3,4-dicarboxamide], for which the negative-log EC50 (pEC50) in assay [1] (average of all runs (Table 4)) and in assay [2] was 7.30 to 10.00 in each case.
For the compound `CCCCCCCCCCCCCCNC(=O)[C@H]1CN(C(=O)c2ccc(C(=O)N3C[C@@H](C(=O)N[C@H]4C[C@@H]4c4ccccc4)[C@H](C(=O)N[C@H]4C[C@@H]4c4ccccc4)C3)cc2)C[C@@H]1OC` [Compound 110, (3S,4S)-1-(4-((3R,4S)-3-methoxy-4-(tetradecylcarbamoyl)pyrrolidine-1-carbonyl)benzoyl)-N3,N4-bis((1S,2R)-2-phenylcyclopropyl)pyrrolidine-3,4-dicarboxamide], the pEC50 in assay [1] (average of all runs (Table 4)) and in assay [2] was 7.30 to 10.00 in each case.
Take `CCCCCCCO[C@@H]1CN(C(=O)c2ccc(C(=O)N3C[C@@H](C(=O)N[C@H]4C[C@@H]4c4ccccc4)[C@H](C(=O)N[C@H]4C[C@@H]4c4ccccc4)C3)cc2)C[C@H]1C(=O)NCCCCCC` (single isomer, unassigned) [Compound 072, (3S,4S)-1-(4-((3S*,4R*)-3-(heptyloxy)-4-(hexylcarbamoyl)pyrrolidine-1-carbonyl)benzoyl)-N3,N4-bis((1S,2R)-2-phenylcyclopropyl)pyrrolidine-3,4-dicarboxamide]: the pEC50 in assay [1] (average of all runs (Table 3)) and in assay [2] was 7.30 to 10.00 in each case.
Consider `CCCCCCCCN1C(=O)CN(C(=O)c2ccc(C(=O)N3C[C@@H](C(=O)N[C@H]4C[C@@H]4c4ccccc4)[C@H](C(=O)N[C@H]4C[C@@H]4c4ccccc4)C3)cc2)C[C@@H]1C(=O)NCCCCCC` [Compound 075, (3S,4S)-1-(4-((R)-3-(hexylcarbamoyl)-4-octyl-5-oxopiperazine-1-carbonyl)benzoyl)-N3,N4-bis((1S,2R)-2-phenylcyclopropyl)pyrrolidine-3,4-dicarboxamide], for which the pEC50 is 6.46 to 7.29 in assay [1] (average of all runs (Table 3)) and 7.30 to 10.00 in assay [2].
With `CCCCCCCCCCCCCCC(=O)N[C@H]1CCN(C(=O)c2ccc(C(=O)N3C[C@@H](C(=O)N[C@H]4C[C@@H]4c4ccccc4)[C@H](C(=O)N[C@H]4C[C@@H]4c4ccccc4)C3)cc2)C1` [Compound 026, (3S,4S)-1-(4-((S)-3-pentadecanamidopyrrolidine-1-carbonyl)benzoyl)-N3,N4-bis((1S,2R)-2-phenylcyclopropyl)pyrrolidine-3,4-dicarboxamide], the pEC50 in assay [1] (average of all runs (Table 3)) and in assay [2] was 6.46 to 7.29 throughout.
With `CCCCCCCCCCCCCCNC(=O)[C@H]1CN(C(=O)c2ccc(C(=O)N3C[C@@H](C(=O)N[C@H]4C[C@@H]4c4ccccc4)[C@H](C(=O)N[C@H]4C[C@@H]4c4ccccc4)C3)cc2)C[C@H]1OC` (relative stereo) [Compound 108, (3S,4S)-1-(4-((3S*,4S*)-3-methoxy-4-(tetradecylcarbamoyl)pyrrolidine-1-carbonyl)benzoyl)-N3,N4-bis((1S,2R)-2-phenylcyclopropyl)pyrrolidine-3,4-dicarboxamide], the values for the negative-log EC50 (pEC50) in assay [3], in assay [1] (average of all runs (Table 4)) and in assay [2] were 6.46 to 7.29, 7.30 to 10.00 and 7.30 to 10.00, respectively.
Regarding `CCCCCCCCCCCCCCNC(=O)C1CN(C(=O)c2ccc(C(=O)N3C[C@@H](C(=O)N[C@H]4C[C@@H]4c4ccccc4)[C@H](C(=O)N[C@H]4C[C@@H]4c4ccccc4)C3)cc2)CCN1` (mixture of isomers) [Compound 054, (3S,4S)—N3,N4-bis ((1S,2R)-2-phenylcyclopropyl)-1-(4-(3-(tetradecylcarbamoyl)piperazine-1-carbonyl)benzoyl) pyrrolidine-3,4-dicarboxamide], the pEC50 was 6.46 to 7.29 in assay [1] (average of all runs (Table 3)) and 7.30 to 10.00 in assay [2].
The like results for `CCCCCCCC(=O)N1CC(=O)N(Cc2ccc(C(=O)N3C[C@@H](C(=O)N[C@H]4C[C@@H]4c4ccccc4)[C@H](C(=O)N[C@H]4C[C@@H]4c4ccccc4)C3)cc2)C[C@H]1C(=O)NCCCCCC` [Compound 076, (3S,4S)-1-(4-(((S)-5-(hexylcarbamoyl)-4-octanoyl-2-oxopiperazin-1-yl)methyl)benzoyl)-N3,N4-bis((1S,2R)-2-phenylcyclopropyl)pyrrolidine-3,4-dicarboxamide] were, in that order, 7.30 to 10.00 and 7.30 to 10.00.
For the compound `CCCCCCCCCCCCCCC(=O)N[C@@H]1CCN(C(=O)c2ccc(C(=O)N3C[C@@H](C(=O)N[C@H]4C[C@@H]4c4ccccc4)[C@H](C(=O)N[C@H]4C[C@@H]4c4ccccc4)C3)cc2)C1` [Compound 027, (3S,4S)-1-(4-((R)-3-pentadecanamidopyrrolidine-1-carbonyl)benzoyl)-N3,N4-bis((1S,2R)-2-phenylcyclopropyl)pyrrolidine-3,4-dicarboxamide], the pEC50 in assay [1] (average of all runs (Table 3)) and in assay [2] was 7.30 to 10.00 throughout.
With `CCCCCCCCCCCCCCNC(=O)[C@H]1CN(C(=O)c2ccc(C(=O)N3C[C@@H](C(=O)N[C@H]4C[C@@H]4c4ccccc4)[C@H](C(=O)N[C@H]4C[C@@H]4c4ccccc4)C3)cc2)CCN1C` [Compound 059, (3S,4S)-1-(4-((R)-4-methyl-3-(tetradecylcarbamoyl)piperazine-1-carbonyl)benzoyl)-N3,N4-bis((1S,2R)-2-phenylcyclopropyl)pyrrolidine-3,4-dicarboxamide formate], the pEC50 in assay [1] (average of all runs (Table 3)) and in assay [2] was 7.30 to 10.00 throughout.
For `CCCCCCCC(=O)N1CCN(C(=O)c2ccc(C(=O)N3C[C@@H](C(=O)N[C@H]4C[C@@H]4c4ccccc4)[C@H](C(=O)N[C@H]4C[C@@H]4c4ccccc4)C3)cc2)C[C@@H]1C(=O)NCCCCCC` [Compound 032, (3S,4S)-1-(4-((R)-3-(hexylcarbamoyl)-4-octanoylpiperazine-1-carbonyl)benzoyl)-N3,N4-bis((1S,2R)-2-phenylcyclopropyl)pyrrolidine-3,4-dicarboxamide], the pEC50 in assay [1] (average of all runs (Table 3)) and in assay [2] was 7.30 to 10.00 in each case.
In the case of `CCCCCCCCCCCCCCNC(=O)[C@@H]1CCCN(C(=O)c2ccc(C(=O)N3C[C@@H](C(=O)N[C@H]4C[C@@H]4c4ccccc4)[C@H](C(=O)N[C@H]4C[C@@H]4c4ccccc4)C3)cc2)C1` [Compound 102, (3S,4S)—N3,N4-bis((1S,2R)-2-phenylcyclopropyl)-1-(4-((R)-3-(tetradecylcarbamoyl)piperidine-1-carbonyl)benzoyl) pyrrolidine-3,4-dicarboxamide], the negative logarithm of the EC50 (pEC50) in assay [1] (average of all runs (Table 4)) and in assay [2] was 7.30 to 10.00 each time.
Consider `CCCCCCNC(=O)[C@H](CNC(=O)c1ccc(C(=O)N2C[C@@H](C(=O)N[C@H]3C[C@@H]3c3ccccc3)[C@H](C(=O)N[C@H]3C[C@@H]3c3ccccc3)C2)cc1)NC(=O)CCCCCC` [Compound 025, (3S,4S)-1-(4-(((S)-2-heptanamido-3-(hexylamino)-3-oxopropyl)carbamoyl)benzoyl)-N3,N4-bis((1S,2R)-2-phenylcyclopropyl)pyrrolidine-3,4-dicarboxamide], for which the negative-log EC50 (pEC50) in assay [1] (average of all runs (Table 3)) and in assay [2] was 7.30 to 10.00 throughout.
